Results: patent publication US9409952B2, “Peptide-compound cyclization method” (Chugai Seiyaku Kabushiki Kaisha, priority 2011, dated 2016)
Where two headings read alike, the source gives them in different places. Starred links: 1 amine or outer side, 2 acyl side, 3 side chain; linkers in the order of their positions; H or OH if unused. Positions of bridges follow the written chain, without caps; N, C: chain ends. Non-standard residues stand in square brackets, D forms with d. Residues, ends and D or L forms follow the SMILES beside them. *: point of attachment. NMePhe(3-Cl) = CN[C@@H](Cc1cccc(Cl)c1)C(=O)O; NMeF = CN[C@@H](Cc1ccccc1)C(=O)O; NMeGABA = CN(CCCC(=O)[*:2])[*:1]; NMeI = CC[C@H](C)[C@H](NC)C(=O)O; hPhe = N[C@@H](CCc1ccccc1)C(=O)O; NMeβAla = CN(CCC(=O)[*:2])[*:1]; Aoc(2) = CCCCCC[C@H](N)C(=O)O; NMeL = CN[C@@H](CC(C)C)C(=O)O; NMeV = CN[C@H](C(=O)O)C(C)C; NMeA = CN[C@@H](C)C(=O)O; Piperidide = C1CCN(*)CC1; dNMeA = CN[C@H](C)C(=O)O; β3hA = C[C@H](N)CC(=O)O; Sar = CNCC(=O)O; tBu = CC(C)(C)*

How the values were obtained:
[1] = Metabolic stability in human hepatic microsome; assay type: in vitro ADME; settings: microsomes
[2] = PAMPA (parallel artificial membrane permeability assay); assay type: in vitro ADME; settings: for Papp at 18 hours, 50 µM: PAMPA
Summary of the method: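 Artificial membrane was 10% (w/v) egg lecithin plus 0.5% (w/v) cholesterol in dodecane on a PVDF filter. A 10 mM DMSO stock was added at 0.5% (v/v) to donor buffer (50 mM MOPSO, pH 6.5, 5.0% glycocholic acid). After 18 h at 37 °C, LC/MS or LC/UV gave donor and acceptor levels for Pe.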

[3] = pH 7.4, human hepatic microsome, NADPH(+), read-out: CL NADPH(+)
[4] = membrane permeation rate (Pe), 50 mM MOPSO buffer pH 6.5 with 5.0% glycocholic acid, 37° C., 18 hours, read-out: iPAMPA Pe

microsomal CLint at 1 uM ([1]; human, pH 7.4, CL NADPH(+)) | Papp at 18 hours, 50 µM ([2]; pH 6.5) | SMILES | microsomal CLint at 1 uM [1, 3] | Papp at 18 hours, 50 µM [2, 4] | iPAMPA Pe ([2]; membrane permeation rate (Pe), 50 mM MOPSO buffer pH 6.5 with 5.0% glycocholic acid, 37° C., 18 hours)
– | – | CC(C)C[C@H]1C(=O)N(C)[C@@H](C(C)C)C(=O)N(C)[C@@H](C)C(=O)N[C@@H](CCc2ccccc2)C(=O)N(C)[C@@H](C)C(=O)N[C@H](C(=O)N2CCCCC2)CC(=O)N(C)[C@@H](C)C(=O)N[C@@H]([C@@H](C)O)C(=O)N(C)[C@@H](C)C(=O)N[C@@H](C)C(=O)N(C)[C@@H](Cc2ccccc2)C(=O)N1C [DP-734] ([NMeA]T[NMeA]A[NMeF][NMeL][NMeV][NMeA][hPhe][NMeA]D-Piperidide; lactam N-11) | 84 µL/min/mg | 16 ×10⁻⁶ cm/s | –
– | – | CC[C@H](C)[C@@H]1NC(=O)[C@H](CC(C)C)N(C)C(=O)[C@H](C(C)C)N(C)C(=O)CCN(C)C(=O)C[C@@H](C(=O)N(C)[C@@H](Cc2ccccc2)C(=O)N[C@@H](C)C(=O)N2CCCCC2)NC(=O)[C@H]([C@@H](C)O)NC(=O)[C@H](Cc2ccccc2)N(C)C(=O)[C@H](C)N(C)C(=O)[C@H](CC(C)C)NC(=O)[C@H](C(C)C)N(C)C1=O [DP-447] ([NMeβAla][NMeV][NMeL]I[NMeV]L[NMeA][NMeF]TD[NMeF]A-Piperidide; lactam N-10) | 159 µL/min/mg | 33 ×10⁻⁶ cm/s | –
– | – | CC(C)C[C@H]1C(=O)N[C@@H]([C@@H](C)O)C(=O)N(C)[C@@H](C)C(=O)N(C)[C@@H](CC(C)C)C(=O)N(C)[C@@H](Cc2ccccc2)C(=O)N[C@@H](COC(C)(C)C)C(=O)N[C@H](C(=O)N2CCCCC2)CC(=O)N(C)CCCC(=O)N(C)[C@@H](C)C(=O)N1C [DP-130] ([NMeGABA][NMeA][NMeL]T[NMeA][NMeL][NMeF]S(tBu)D-Piperidide; lactam N-9) | 76 µL/min/mg | 21 ×10⁻⁶ cm/s | –
– | – | CC(C)C[C@H]1C(=O)N(C)[C@@H](C)C(=O)N(C)[C@@H](CC(C)C)C(=O)N[C@H](C(=O)N2CCCCC2)CC(=O)N(C)[C@H](C)C(=O)N(C)[C@@H](Cc2ccccc2)C(=O)N[C@@H]([C@@H](C)O)C(=O)N(C)[C@@H](C)C(=O)N(C)[C@@H](CC(C)C)C(=O)NCC(=O)N1C [DP-435] ([dNMeA][NMeF]T[NMeA][NMeL]G[NMeL][NMeA][NMeL]D-Piperidide; lactam N-10) | 41 µL/min/mg | 16 ×10⁻⁶ cm/s | –
– | – | CC(C)C[C@H]1C(=O)N(C)[C@@H](CC(C)C)C(=O)N(C)[C@@H](Cc2ccccc2)C(=O)N(C)[C@@H](CC(C)C)C(=O)N[C@H](C(=O)N(C)[C@@H](Cc2ccccc2)C(=O)N[C@@H](C)C(=O)N2CCCCC2)CC(=O)N(C)CC(=O)N[C@@H]([C@@H](C)O)C(=O)N(C)[C@@H](Cc2ccccc2)C(=O)N(C)[C@@H](CC(C)C)C(=O)N[C@@H](C)C(=O)N1C [DP-493] ([Sar]T[NMeF][NMeL]A[NMeL][NMeL][NMeF][NMeL]D[NMeF]A-Piperidide; lactam N-10) | 52 µL/min/mg | 2.4 ×10⁻⁶ cm/s | –
– | – | CC(C)C[C@H]1C(=O)N[C@H](C(=O)N2CCCCC2)CC(=O)N(C)[C@@H](C)C(=O)N(C)[C@@H](Cc2ccccc2)C(=O)N(C)[C@@H](CC(C)C)C(=O)N[C@@H]([C@@H](C)O)C(=O)N(C)[C@@H](C)C(=O)N1C [DP-678] ([NMeA][NMeF][NMeL]T[NMeA][NMeL]D-Piperidide; lactam N-7) | 284 µL/min/mg | 26 ×10⁻⁶ cm/s | –
– | – | CC[C@H](C)[C@@H]1NC(=O)[C@H](CC(C)C)N(C)C(=O)[C@H]([C@@H](C)O)NC(=O)[C@H](CC(C)C)N(C)C(=O)[C@H](C(C)C)NC(=O)[C@H](Cc2ccccc2)N(C)C(=O)CCN(C)C(=O)C[C@@H](C(=O)N2CCC[C@H]2C(=O)N[C@H](C(=O)N(C)[C@@H](Cc2cccc(Cl)c2)C(=O)N(C)[C@@H](Cc2ccccc2)C(=O)N[C@H](C(=O)N2CCCCC2)[C@@H](C)CC)C(C)C)NC1=O [DP-926] ([NMeβAla][NMeF]V[NMeL]T[NMeL]IDPV[NMePhe(3-Cl)][NMeF]I-Piperidide; lactam N-8) | 53 µL/min/mg | 0.1 ×10⁻⁶ cm/s | –
– | – | CC(C)[C@@H]1NC(=O)[C@H](C)N(C)C(=O)[C@@H](C)N(C)C(=O)C[C@@H](C(=O)N(C)[C@@H](Cc2ccccc2)C(=O)N(C)[C@@H](Cc2ccccc2)C(=O)N[C@@H](C)C(=O)N2CCCCC2)NC(=O)[C@H](C)N(C)C(=O)[C@H](C)N(C)C(=O)[C@H]([C@@H](C)O)NC(=O)[C@H](C)N(C)C(=O)[C@H](Cc2ccccc2)N(C)C(=O)[C@H](C)N(C)C1=O [DP-509] ([dNMeA][NMeA]V[NMeA][NMeF][NMeA]T[NMeA][NMeA]D[NMeF][NMeF]A-Piperidide; lactam N-10) | 30 µL/min/mg | 5.1 ×10⁻⁶ cm/s | –
– | – | CC[C@H](C)[C@H](NC(=O)[C@H](Cc1ccccc1)N(C)C(=O)[C@@H]1CC(=O)N[C@@H](C)C(=O)N[C@@H](CC(C)C)C(=O)N(C)[C@@H]([C@@H](C)CC)C(=O)N[C@@H](C(C)C)C(=O)N(C)[C@@H](Cc2ccccc2)C(=O)N[C@@H](CC(C)C)C(=O)N(C)[C@@H](Cc2ccccc2)C(=O)N1)C(=O)N1CCCCC1 [DP-573] (AL[NMeI]V[NMeF]L[NMeF]D[NMeF]I-Piperidide; lactam N-8) | 72 µL/min/mg | – | 1.0E−07
– | – | CC[C@H](C)[C@@H]1NC(=O)[C@H](Cc2ccccc2)NC(=O)[C@H](CC(C)C)NC(=O)CNC(=O)[C@H]([C@@H](C)O)NC(=O)[C@H](Cc2ccccc2)NC(=O)[C@H](C)N(C)C(=O)C[C@@H](C(=O)N2CCCCC2)NC(=O)[C@H](Cc2ccccc2)NC(=O)[C@H](CC(C)C)N(C)C1=O [DP-436] ([NMeA]FTGLFI[NMeL]FD-Piperidide; lactam N-10) | 142 µL/min/mg | 45 ×10⁻⁶ cm/s | –
– | – | CC[C@H](C)[C@H]1C(=O)N(C)[C@@H](CC(C)C)C(=O)N[C@@H](C)C(=O)N(C)[C@@H](CC(C)C)C(=O)N(C)[C@@H](Cc2ccccc2)C(=O)N[C@@H]([C@@H](C)O)C(=O)N(C)[C@@H](Cc2ccccc2)C(=O)N(C)[C@@H](CC(C)C)C(=O)N(C)[C@@H](C)C(=O)N[C@H](C(=O)N2CCCCC2)CC(=O)N[C@H](C(C)C)C(=O)N1C [DP-235] ([dV][NMeI][NMeL]A[NMeL][NMeF]T[NMeF][NMeL][NMeA]D-Piperidide; lactam N-11) | 58 µL/min/mg | 9 ×10⁻⁶ cm/s | –
– | – | CC[C@H](C)[C@@H]1NC(=O)[C@H](C)N(C)C(=O)[C@H](CC(C)C)N(C)C(=O)CCCN(C)C(=O)C[C@@H](C(=O)N2CCCCC2)NC(=O)[C@H](C)N(C)C(=O)[C@H](Cc2ccccc2)N(C)C(=O)[C@H]([C@@H](C)O)NC(=O)[C@H](Cc2ccccc2)N(C)C(=O)[C@H](CC(C)C)N(C)C1=O [DP-487] ([NMeGABA][NMeL][NMeA]I[NMeL][NMeF]T[NMeF][NMeA]D-Piperidide; lactam N-10) | 386 µL/min/mg | 24 ×10⁻⁶ cm/s | –
– | – | CC(C)C[C@@H]1NC(=O)CN(C)C(=O)[C@H](CC(C)C)NC(=O)[C@H](C)NC(=O)[C@H](CC(C)C)NC(=O)[C@H](CC(C)C)NC(=O)[C@H](C)N(C)C(=O)C[C@@H](C(=O)N2CCCCC2)NC(=O)[C@H]([C@@H](C)O)NC(=O)[C@H](Cc2ccccc2)NC(=O)[C@H](CC(C)C)NC1=O [DP-420] ([NMeA]LLAL[Sar]LLFTD-Piperidide; lactam N-11) | 69 µL/min/mg | 10 ×10⁻⁶ cm/s | –
71 µL/min/mg | 26 ×10⁻⁶ cm/s | CCCCCC[C@@H]1NC(=O)[C@H](CC(C)C)N(C)C(=O)[C@@H]2CCCN2C(=O)[C@H](C)N(C)C(=O)[C@H](Cc2ccccc2)N(C)C(=O)[C@H](Cc2ccccc2)N(C)C(=O)CN(C)C(=O)[C@H]([C@@H](C)O)NC(=O)[C@H](C)N(C)C(=O)C[C@H](C)NC(=O)[C@H](C(C)C)N(C)C1=O [DP-774] (cyclo([Aoc(2)][NMeV][β3hA][NMeA]T[Sar][NMeF][NMeF][NMeA]P[NMeL])) | – | – | –
– | – | CC(C)C[C@H]1C(=O)N(C)[C@@H](Cc2ccccc2)C(=O)N[C@H](C(=O)N2CCCCC2)CC(=O)N(C)CCCC(=O)N(C)[C@@H](C)C(=O)N(C)[C@@H](CC(C)C)C(=O)N[C@@H]([C@@H](C)O)C(=O)N(C)CC(=O)N1C [DP-712] ([NMeGABA][NMeA][NMeL]T[Sar][NMeL][NMeF]D-Piperidide; lactam N-8) | 57 µL/min/mg | 12 ×10⁻⁶ cm/s | –
– | – | CC(C)C[C@H]1C(=O)N[C@@H](COC(C)(C)C)C(=O)N[C@H](C(=O)N2CCCCC2)CC(=O)N(C)[C@@H](C)C(=O)N(C)[C@@H](Cc2ccccc2)C(=O)N(C)[C@@H](CC(C)C)C(=O)N[C@@H]([C@@H](C)O)C(=O)N(C)[C@@H](C)C(=O)N1C [DP-707] ([NMeA][NMeF][NMeL]T[NMeA][NMeL]S(tBu)D-Piperidide; lactam N-8) | 84 µL/min/mg | 29 ×10⁻⁶ cm/s | –
– | – | CC[C@H](C)[C@@H]1NC(=O)[C@H](Cc2ccccc2)N(C)C(=O)[C@@H](C)NC(=O)C[C@@H](C(=O)N(C)[C@@H](Cc2ccccc2)C(=O)N(C)[C@@H](Cc2ccccc2)C(=O)N[C@@H](C)C(=O)N2CCCCC2)NC(=O)[C@H](C(C)C)NC(=O)CN(C)C(=O)[C@H]([C@@H](C)O)NC1=O [DP-569] ([dA][NMeF]IT[Sar]VD[NMeF][NMeF]A-Piperidide; lactam N-7) | 203 µL/min/mg | 21 ×10⁻⁶ cm/s | –
– | – | CC[C@H](C)[C@H]1C(=O)N[C@@H]([C@@H](C)O)C(=O)N[C@@H](CC(C)C)C(=O)N[C@H](C(=O)N2CCCCC2)CC(=O)N[C@H](C)C(=O)N(C)[C@@H](CC(C)C)C(=O)N(C)[C@@H](CC(C)C)C(=O)N(C)[C@@H](Cc2ccccc2)C(=O)N(C)[C@@H](CC(C)C)C(=O)N(C)[C@@H](Cc2ccccc2)C(=O)N[C@@H](C)C(=O)N1C [DP-228] ([dA][NMeL][NMeL][NMeF][NMeL][NMeF]A[NMeI]TLD-Piperidide; lactam N-11) | 28 µL/min/mg | 5.2 ×10⁻⁶ cm/s | –
– | – | CC[C@H](C)[C@@H]1NC(=O)[C@H](CC(C)C)N(C)C(=O)[C@H](Cc2ccccc2)NC(=O)[C@H]([C@@H](C)O)NC(=O)[C@H](CC(C)C)N(C)C(=O)[C@H](C(C)C)N(C)C(=O)[C@@H](C)N(C)C(=O)C[C@@H](C(=O)N2CCCCC2)NC(=O)[C@H](CC(C)C)NC(=O)[C@H](Cc2ccccc2)N(C)C1=O [DP-432] ([dNMeA][NMeV][NMeL]TF[NMeL]I[NMeF]LD-Piperidide; lactam N-10) | 396 µL/min/mg | 26 ×10⁻⁶ cm/s | –
